Results taken from patent publication US6077841A, “5-heterocyclyl pyrazolo[4,3-d]pyrimidin-7-ones for the treatment of male erectile dysfunction” (Janssen Pharmaceutica, N.V., priority 1999, dated 2000).

target: PDE V (Oryctolagus cuniculus, UniProt G1SX67); assay: Measurement of Inhibition of PDE V (cyclic nucleotide phosphodiesterase assay); assay type: biochemical, rabbit; settings: 1 μM cGMP or cAMP, pH 7.4, 30° C., 30 minutes, 10% DMSO; read-out: Activity IC50 (PDEV inhibitory activity)

Row | Compound | IC50 [nM]
1 | CCCc1nn(C)c2c(=O)[nH]c(-c3sccc3OCC)nc12 [Compound 4, 5-(3-Ethoxythiophene-2-yl)-1-methyl-3-n-propyl-6,7-dihydro-1H-pyrazolo-[4,3-d]pyrimidin-7-one] | 470
2 | CCCc1nn(C)c2c(=O)[nH]c(-c3sc(S(=O)(=O)N4CCN(C)CC4)cc3O)nc12 [Compound 6, 5-[3-hydroxy-5-(4-methylpiperazinylsulfonyl)-thiophene-2-yl]-1-methyl-3-n-propyl-6,7-dihydro-1H-pyrazolo-[4,3-d]pyrimidin-7-one] | 10000
3 | CCCc1nn(C)c2c(=O)[nH]c(-c3cc4cccc(OCC)c4o3)nc12 [Compound 7, 5-(7-Ethoxybenzofuran-2-yl)-1-methyl-3-n-propyl-6,7-dihydro-1H-pyrazolo-[4,3-d]pyrimidin-7-one] | 910
4 | CCCc1nn(C)c2c(=O)[nH]c(-c3cc4c(S(=O)(=O)N5CCN(C)CC5)ccc(OCC)c4o3)nc12 [Compound 8] | 5400
5 | CCCc1nn(C)c2c(=O)[nH]c(-c3sc(S(=O)(=O)N4CCN(c5ncccn5)CC4)cc3OCC)nc12 [Compound 12] | 1200
6 | CCCc1nn(C)c2c(=O)[nH]c(-c3sc(S(=O)(=O)N4CCN(C(N)=O)CC4)cc3OCC)nc12 [Compound 20] | 950
7 | CCCc1nn(C)c2c(=O)[nH]c(-c3sc(S(=O)(=O)N(C)C)cc3OCC)nc12 [Compound 22] | 1400
8 | CCCc1nn(C)c2c(=O)[nH]c(-c3sc(S(=O)(=O)N(C)CCN(C)C)cc3OCC)nc12 [Compound 26] | 4900
9 | CCCc1nn(C)c2c(=O)[nH]c(-c3cccs3)nc12 [Compound 28] | 1600

Second part, the molecule after the results:

Row | IC50 [nM] | Compound
10 | 8000 | CCCc1nn(C)c2c(=O)[nH]c(-c3sc(S(=O)(=O)N4CCN(C)CC4)cc3OCC)nc12 [Compound 5, 5-[3-Ethoxy-5-(4-methylpiperazinylsulfonyl)-thiophene-2-yl]-1-methyl-3-n-propyl-6,7-dihydro-1H-pyrazolo-[4,3-d]pyrimidin-7-one]
11 | 3500 | CCCc1nn(C)c2c(=O)[nH]c(-c3cccn3C)nc12 [Compound 10]
12 | 2300 | CCCc1nn(C)c2c(=O)[nH]c(-c3sc(S(=O)(=O)N4CCN(CC)CC4)cc3OCC)nc12 [Compound 24]
13 | 8300 | CCCc1nn(C)c2c(=O)[nH]c(-c3sc(S(=O)(=O)N4CCC(N(C)C)CC4)cc3OCC)nc12 [Compound 29]

same assay, conditions: at 10 μM; read-out: Activity Inhibition % at (conc. μM)

Row | Compound | inhibition at 10 µM [%]
14 | CCCc1nn(C)c2c(=O)[nH]c(-c3cc(S(=O)(=O)N4CCN(C)CC4)cn3C)nc12 [Compound 11] | 31
15 | CCCc1nn(C)c2c(=O)[nH]c(-c3sc(S(=O)(=O)N4CCN(c5ccccc5)CC4)cc3OCC)nc12 [Compound 16] | 19
16 | CCCc1nn(C)c2c(=O)[nH]c(-c3sc(S(=O)(=O)N4CCN(c5ccccc5)CC4)cc3O)nc12 [Compound 17] | 28
17 | CCCc1nn(C)c2c(=O)[nH]c(-c3sc(S(=O)(=O)N4CCN(C/C=C/c5ccccc5)CC4)cc3OCC)nc12 [Compound 18] | 44
18 | CCCc1nn(C)c2c(=O)[nH]c(-c3sc(S(=O)(=O)N4CCN(C/C=C/c5ccccc5)CC4)cc3O)nc12 [Compound 19] | 27
19 | CCCc1nn(C)c2c(=O)[nH]c(-c3sc(S(=O)(=O)N4CCN(C(N)=O)CC4)cc3O)nc12 [Compound 21] | 30
20 | CCCc1nn(C)c2c(=O)[nH]c(-c3sc(S(=O)(=O)N(C)CCN(C)C)cc3O)nc12 [Compound 27] | 32
21 | CCCc1nn(C)c2c(=O)[nH]c(-c3sc(S(=O)(=O)N4CCN(C5CCCCC5)CC4)cc3OCC)nc12 [Compound 30] | 33
22 | CCCc1nn(C)c2c(=O)[nH]c(-c3cc(S(=O)(=O)N4CCN(c5ncccn5)CC4)cn3C)nc12 [Compound 32] | 31

Further lines, results first:

Row | inhibition at 10 µM [%] | Compound
23 | 30 | CCCc1nn(C)c2c(=O)[nH]c(-c3sc(S(=O)(=O)N(C)C)cc3O)nc12 [Compound 23]
24 | 26 | CCCc1nn(C)c2c(=O)[nH]c(-c3sc(S(=O)(=O)N4CCN(CC)CC4)cc3O)nc12 [Compound 25]
25 | 31 | CCCc1nn(C)c2c(=O)[nH]c(-c3sc(S(=O)(=O)N4CCN(C5CCCCC5)CC4)cc3O)nc12 [Compound 31]

same assay, conditions: at 20 μM; read-out: Activity Inhibition % at (conc. μM)

Row | inhibition at 20 µM [%] | Compound
26 | 6 | CCCc1nn(C)c2c(=O)[nH]c(-c3cc4c(S(=O)(=O)N5CCN(C)CC5)cc(S(=O)(=O)N5CCN(C)CC5)c(OCC)c4o3)nc12 [Compound 9]
27 | 46 | CCCc1nn(C)c2c(=O)[nH]c(-c3sc(S(=O)(=O)N4CCN(Cc5ccccc5)CC4)cc3OCC)nc12 [Compound 13]
28 | 18 | CCCc1nn(C)c2c(=O)[nH]c(-c3sc(S(=O)(=O)N4CCN(Cc5ccccc5)CC4)cc3O)nc12 [Compound 14]
29 | 13 | CCCc1nn(C)c2c(=O)[nH]c(-c3sc(S(=O)(=O)N4CCN(c5ncccn5)CC4)cc3O)nc12 [Compound 15]

test system: erectile dysfunction; assay: not given; settings: ED of psychogenic or organic etiology; share of men; cited from earlier work

Row | Compound | improved sexual function in men who suffer from ED
30 | CCCc1nn(C)c2c(=O)[nH]c(-c3cc(S(=O)(=O)N4CCN(C)CC4)ccc3OCC)nc12 [sildenafil, 5-[2-ethoxy-5-(4-methylpiperazin-1-ylsulphonyl)phenyl]-1-methyl-3-n-propyl-6,7-dihydro-1H-pyrazolo[4,3-d]pyrimidin-7-one] | about 70%

same assay, conditions: patients who had undergone a radical prostatectomy; versus 15% on placebo; cited from earlier work

Row | Compound | patients with improved erections [%]
31 | CCCc1nn(C)c2c(=O)[nH]c(-c3cc(S(=O)(=O)N4CCN(C)CC4)ccc3OCC)nc12 [sildenafil, 5-[2-ethoxy-5-(4-methylpiperazin-1-ylsulphonyl)phenyl]-1-methyl-3-n-propyl-6,7-dihydro-1H-pyrazolo[4,3-d]pyrimidin-7-one] | 43

same assay, conditions: use of sildenafil; cited from earlier work

Row | Compound | undesirable side effects
32 | CCCc1nn(C)c2c(=O)[nH]c(-c3cc(S(=O)(=O)N4CCN(C)CC4)ccc3OCC)nc12 [sildenafil, 5-[2-ethoxy-5-(4-methylpiperazin-1-ylsulphonyl)phenyl]-1-methyl-3-n-propyl-6,7-dihydro-1H-pyrazolo[4,3-d]pyrimidin-7-one] | headache, flushing and disrupted color vision

test system: erectile dysfunction; assay: not given; settings: direct intracavernosal or intraurethral injection; cited from earlier work

Row | Compound | side effects
33 | COc1ccc(Cc2nccc3cc(OC)c(OC)cc23)cc1OC [papaverine] | priapism, fibrosis, penile pain and hematoma at the injection site

same assay, conditions: in vivo; cited from earlier work

Row | Compound | side effects
34 | CCCCC[C@H](O)/C=C/[C@H]1[C@H](O)CC(=O)[C@@H]1CCCCCCC(=O)O [alprostadil] | priapism, fibrosis, penile pain and hematoma at the injection site
35 | Cc1ccc(N(CC2=NCCN2)c2cccc(O)c2)cc1 [phentolamine] | priapism, fibrosis, penile pain and hematoma at the injection site
